Several values for one entry are separate records, joined by “and”; a condition that tells them apart may be missing. Identical values can stand only once.
Columns and labels:
[1] = In vitro ABTS radical scavenging assay; settings: mean ± SEM, n = 3; 30 min incubation, absorbance at 734 nm
Method: ABTS (2,2′-azinobis (3-ethylbenzothiazoline-6-sulfonic acid) diammonium salt) assay was used for the antioxidant estimation. Though many methods are available, this appears to be the most popular because of its operational simplicity, short experimental time, and the employment of the inexpensive spectrophotometer.
Antioxidant activity was tested in the dark room by ABTS assay. UV-1800 (Shimadzu Corporation, Kyoto, Japan) was used to measure UV absorption. Hellma’s 104.600-QC Quartz cell was used as a UV cell. IC50 values were obtained using OriginPro 8.0 software (OriginLab Corporation, Northampton, MA, USA).
Antioxidant assay using ABTS
The radical cation was prepared by mixing an equal amount of 7mM ABTS (2,2’-azino-bis(3-ethylbenzothiazoline-6-sulphonic acid)) stock solution with 2.45 mM potassium persulfate stock solution. This mixture was stored at 0 °C for 12 hours under darkness. The above ABTS […]
Then these solutions were diluted with methanol to 500 µM, 250 µM, 125 µM, 62.5 µM, […]
tubes, 0.9 mL of the ABTS solution and 0.1 mL of the compound solution were mixed under darkness. After 30 min of incubation, the UV absorption at 734 nm was measured. Control was used the mixture of 0.9 mL ABTS and 0.1 mL methanol. […]
(§1) Statistical analysis. Statistical significance was analyzed using the GraphPad Prism 5 software (GraphPad Software, San Diego, CA, USA). The comparison of two groups was performed by the unpaired t test. Values of *P less than 0.05, **P less than 0.01 and ***P less than 0.001 were considered statistically significant.

RAW 264.7 cells = test: Cell viability (MTT) assay; assay type: cell-based; settings: for Cell Viability LD50: 24 h
Source text: In the pathogenesis of inflammatory-related disorders, NO is recognized as one of the important mediators. […] Herein, to understand the anti-inflammatory properties of the resveratrol analogues, we studied their inhibitory effects against NO production in LPS-treated RAW 264.7 cells. Although it is not possible to measure NO quantitatively in a biological environment due to its rapid oxidation to NO2 (nitrite), short physiological half-life and presence of other free radicals, NO secretion activity in cells is indirectly determined by Griess assay counting its stable product NO2 levels. The inhibitory effects of 1–7 on NO production were collected in Table 2. […] Cell viability was not affected up to 50 μM except for 2. We also applied in vitro efficacy index (iEI) paradigm, the ratio of toxicity (LD50)/anti-inflammatory potency (ED50), to confirm that the anti-inflammatory activity is in the viable cells only. […] On the whole, compounds 5 and 7 have much-improved iEI values compared to any other compounds. […]
NO assay and cell viability test
Murine macrophage, Raw 264.7 cells were grown in Dulbecco’s modified Eagle’s medium (Gibco, Carlsbad , CA, USA), supplemented with 2 mM glutamine, antibiotics (100 U/mL of penicillin A and […] of streptomycin) and 10% FBS (Gibco). Cells were cultured in 96-well plates (5×10^4 cells), treated with serial dilutions of compound (3.125-100 µM) and stimulated with LPS (1 µg/mL) for 24 h at 37°C. After incubation, the supernatant was collected and the amount of nitrite was quantified using the Griess Reagent System ( Promega, Fitchburg, WI, USA ). For the correction of NO production, cell viability was measured using the CellTiter 96® Aqueous one solution cell proliferation assay kit (Promega). Cells were incubated with varying amounts of compound for 24 h, then MTS (tetrazolium salt) reagent was added to the plates. After 1h, the absorbance at 490 nm was read using a microplate reader (Thermo Scientific, Waltham, MA, USA).
as §1

[2] = test system: IL-1β gene expression in LPS-stimulated RAW 264.7 cells; test: Pro-inflammatory cytokine gene expression by endpoint RT-PCR, IL-1β; assay type: cell-based, Murine; settings: 12.5~50 μM compound, 1 μg/mL LPS, 24 h
Method: (§2) We have further investigated whether resveratrol and its analogues can reduce the inflammatory activity of macrophages. For this purpose, we examined the downregulation of pro-inflammatory cytokine gene expression of LPS-stimulated RAW 264.7 cells by potent inhibitors of NO production (1, 2, 5, and 7) (Figure 2). […] Treatment with 50 μM of analogue 2 was highly toxic to the cells.
(§3) Figure 2 Inhibitory effects of 1–7 on pro-inflammatory cytokine production of activated macrophage cells. RAW 264.7 cells were treated with 1 μg/mL LPS for 24 h in the presence of the indicated amounts (12.5~50 μM) of compounds. Gene expression levels were analyzed by endpoint reverse transcriptase-polymerase chain reaction and 1.5% agarose gel electrophoresis. GAPDH was used as a control.
(§4) Reverse transcriptase-polymerase chain reaction (RT-PCR)
(§5) Total RNA was isolated from Raw 264.7 cells using TRIzol reagent (Invitrogen, Waltham,
(§6) MA, USA). Relative levels of pro-inflammatory cytokine gene expression were tested by
(§7) 1.5% agarose gel electrophoresis after endpoint RT-PCR using GoScript™ Reverse
(§8) Transcriptase (Promega). The sequences of the sense and anti-sense primers used for
(§9) amplification are as follows. IL-1β, 5’-[…]-3’, 5’-
(§10) TNF-α, 5’-[…]-3’, 5’-GGCACCA
(§11) -3’. As a control, glyceraldehyde-3-phosphate dehydrogenase
(§12) (GAPDH) gene was also amplified using 5’-[…]-3’, 5’-
(§13) (1 picture or pasted object on this page, not shown here)

[3] = test system: IL-6 gene expression in LPS-stimulated RAW 264.7 cells; test: Pro-inflammatory cytokine gene expression by endpoint RT-PCR, IL-6; assay type: cell-based, Murine; settings: 12.5~50 μM compound, 1 μg/mL LPS, 24 h
Method: as §2, §3, §4, §5, §6, §7, §8, §9, §10, §11, §12, §13

[4] = test system: TNF-α gene expression in LPS-stimulated RAW 264.7 cells; test: Pro-inflammatory cytokine gene expression by endpoint RT-PCR, TNF-α; assay type: cell-based, Murine; settings: 12.5~50 μM compound, 1 μg/mL LPS, 24 h
Method: as §2, §3, §4, §5, §6, §7, §8, §9, §10, §11, §12, §13

[5] = test system: NO production in LPS-treated RAW 264.7 cells; test: Inhibition of NO production (Griess assay, nitrite) in LPS-treated RAW 264.7 cells; assay type: cell-based, Murine; settings: LPS 1 μg/mL, 24 h, NO2 released into culture media, mean ± SEM, n = 3
Source text: In the pathogenesis of inflammatory-related disorders, NO is recognized as one of the important mediators. […] Herein, to understand the anti-inflammatory properties of the resveratrol analogues, we studied their inhibitory effects against NO production in LPS-treated RAW 264.7 cells. Although it is not possible to measure NO quantitatively in a biological environment due to its rapid oxidation to NO2 (nitrite), short physiological half-life and presence of other free radicals, NO secretion activity in cells is indirectly determined by Griess assay counting its stable product NO2 levels. The inhibitory effects of 1–7 on NO production were collected in Table 2. […] Cell viability was not affected up to 50 μM except for 2. […]
Anti-inflammatory activity was measured as the effect of compounds on inhibiting NO production versus cell viability. […]
Murine macrophage, Raw 264.7 cells were grown in Dulbecco’s modified Eagle’s medium (Gibco, Carlsbad , CA, USA), supplemented with 2 mM glutamine, antibiotics (100 U/mL of penicillin A and […] of streptomycin) and 10% FBS (Gibco). […] After incubation, the supernatant was collected and the amount of nitrite was quantified using the Griess Reagent System ( Promega, Fitchburg, WI, USA ). For the correction of NO production, cell viability was measured using the CellTiter 96® Aqueous one solution cell proliferation assay kit (Promega). […]

[6] = RAW 264.7 cells, mean ± SEM, n = 3

| SMILES | IC50 [1] [µM] | Cell Viability LD50 (RAW 264.7 cells; mouse) [µM] | Level of IL-1β gene expression [2] | Level of IL-6 gene expression [3] | Level of TNF-α gene expression [4] | Toxicity to the cells (RAW 264.7 cells; 50 μM, LPS-stimulated RAW 264.7 cells, seen in the RT-PCR experiment (RNA degraded, no PCR amplification)) | Cell Viability LD50 (RAW 264.7 cells; [6]) [µM] | NO/MTT Assay ED50 [5] |
| --- | --- | --- | --- | --- | --- | --- | --- | --- |
| O=C1O[C@H]([C@@H](O)CO)C(O)=C1O [Ascorbic acid, reference compound] | 19.8 ± 0.934 | – | – | – | – | – | – | – |
| Oc1ccc(/C=C/c2cc(O)cc(O)c2)cc1 [Compound 1, 3,5,4′-trihydroxy-trans-stilbene, reference compound] | – | 81.08 ± 9.258 | significantly reduced | significantly reduced | did not change | – | – | – |
| Oc1cc(O)cc(/C=C/c2ccc3cc(O)ccc3c2)c1 [Compound 2] | 3.14 ± 0.445 | – | significantly reduced | significantly reduced | did not change | highly toxic | 28.82 ± 0.767 | – |
| Oc1cc(O)cc(/C=C/c2cnc3cc(O)ccc3c2)c1 [Compound 3] | 3.57 ± 0.496 | – | – | – | – | – | 167.12 ± 13.652 | – |
| Oc1cc(O)cc(/C=C/c2ccc3cc(O)ccc3n2)c1 [Compound 4] | 3.61 ± 0.253 | – | – | – | – | – | 123.47 ± 6.388 | – |
| Oc1cc(O)cc(/C=C/c2cc3ccc(O)cc3cn2)c1 [Compound 5] | 2.81 ± 0.034 | – | significantly reduced | significantly reduced | did not change | – | 63.30 ± 1.139 | 13.08 µM and 13.08 ± 0.690 µM |
| Oc1cc(O)cc(/C=C/c2cnc3cc(O)ccc3n2)c1 [Compound 6] | 3.1 ± 0.953 | – | – | – | – | – | 120.46 ± 4.237 | – |
| Oc1cc(O)cc(/C=C/c2ncc3cc(O)ccc3n2)c1 [Compound 7] | 3.54 ± 0.714 | – | significantly reduced | significantly reduced | did not change | – | 92.58 ± 8.745 | 21.67 µM and 21.67 ± 1.101 µM |
